Test results: patent publication US9834558B2, “Substituted bridged urea analogs as sirtuin modulators” (GLAXOSMITHKLINE LLC, priority 2013, dated 2017)

Target: T1, SIRT1 (Homo sapiens, UniProt Q96EB6)
T1 sequence (Q96EB6 1-747): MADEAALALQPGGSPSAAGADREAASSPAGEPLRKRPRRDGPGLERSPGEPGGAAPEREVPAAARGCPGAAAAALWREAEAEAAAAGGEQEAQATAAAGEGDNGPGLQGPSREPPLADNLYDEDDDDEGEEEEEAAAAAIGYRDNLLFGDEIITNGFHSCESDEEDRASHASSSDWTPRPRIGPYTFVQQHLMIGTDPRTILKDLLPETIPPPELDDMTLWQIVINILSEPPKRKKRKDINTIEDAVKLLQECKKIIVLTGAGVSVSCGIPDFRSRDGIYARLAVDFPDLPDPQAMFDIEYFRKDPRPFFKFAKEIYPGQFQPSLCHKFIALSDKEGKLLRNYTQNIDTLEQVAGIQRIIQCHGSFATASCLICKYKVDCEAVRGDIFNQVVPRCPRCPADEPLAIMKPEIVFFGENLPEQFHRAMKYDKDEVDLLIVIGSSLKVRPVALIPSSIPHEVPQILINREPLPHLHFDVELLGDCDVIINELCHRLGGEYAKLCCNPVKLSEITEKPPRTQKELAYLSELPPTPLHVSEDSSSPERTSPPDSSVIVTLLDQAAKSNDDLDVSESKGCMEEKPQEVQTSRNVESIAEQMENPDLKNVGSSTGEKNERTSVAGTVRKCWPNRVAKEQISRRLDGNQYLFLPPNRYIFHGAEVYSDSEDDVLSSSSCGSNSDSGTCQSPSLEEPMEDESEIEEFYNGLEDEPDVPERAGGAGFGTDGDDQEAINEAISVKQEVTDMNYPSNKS
Assay: Trp mass spectrometry assay of SIRT1 activation
Format: biochemical
Settings: for TRP Activity (EC1.5): EC1.5 = concentration that results in 150% activation of SIRT1; for Emax: read-out: TRP MAX RESP (percent maximum fold activation)
How it was run: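 Activation read-out: mass-spec measurement of O-acetyl-ADP-ribose or deacetylated Trp peptide versus compound-free controls, giving EC1.5 and Percent Maximum Activation. Reactions ran 25 min at 25 °C, pH 7.5, with 120 μM βNAD+, 0.5 μM acetylated p53-derived peptide and 10 nM His-tagged SIRT1.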

[1] = Trp peptide assay, maximum activity relative to control (100%)
[2] = Trp mass spectrometry assay, EC1.5 = concentration of test compound that results in 150% activation of SIRT1
[3] = concentration giving 150% activation of SIRT1, Trp peptide substrate
[4] = Trp mass spectrometry assay, concentration of test compound giving 150% activation of SIRT1

SMILES | TRP Activity (EC1.5) (Trp peptide assay) | Emax [1] | also measured
Cc1ccc(-c2ccc3c(n2)N(C(=O)NC(C)C)[C@H]2CCN3C2)cn1 [(9S)-5-(6-methylpyridin-3-yl)-N-(propan-2-yl)-1,6,8-triazatricyclo[7.2.1.0^{2,7}]dodeca-2,4,6-triene-8-carboxamide] | B (B (EC1.5 1-25 μM)) | > 150% | 
N#Cc1ccccc1-c1ccc2c(n1)N(C(=O)Nc1ccccn1)[C@H]1CCCN2C1 [Example 449] |  |  | Tryp AVG EC1.5 (μM) [2]: B (B (EC1.5 1-25 μM))
N#Cc1cncc(-c2ccc3c(n2)N(C(=O)Nc2cncc(F)c2)[C@H]2CCCN3C2)c1 [Example 535] |  |  | Tryp AVG EC1.5 (μM) [2]: B (B (EC1.5 1-25 μM))
C#CCOc1cccc(NC(=O)N2c3nc(-c4ccc(C5(C(F)(F)F)N=N5)cc4)ccc3N3CC[C@H]2C3)c1 [Example 802] |  |  | Tryp AVG EC1.5 (μM) [3]: B (B (EC1.5 1-25 μM))
Cc1ccc(-c2ccc3c(n2)N(C(=O)NC2CCOC2)[C@H]2CCN3C2)cn1 (stereo partly drawn) [(9S)-5-(6-methylpyridin-3-yl)-N-(oxolan-3-yl)-1,6,8-triazatricyclo[7.2.1.0 {2,7}]dodeca-2,4,6-triene-8-carboxamide] | C (C (EC1.5>25 μM)) | < 150% | 
CC(C)(C)OC(=O)NCCCc1cc(NC(=O)N2c3nc(-c4cccc(C(F)(F)F)c4)ccc3N3CC[C@H]2C3)cc(-c2cnco2)c1 [Example 759] |  |  | Tryp AVG EC1.5 (μM) [3]: B (B (EC1.5 1-25 μM))
O=C(Nc1cncc(F)c1)N1c2nc(-c3ccnc(N4CC[C@H](F)C4)c3)ccc2N2CC[C@H]1C2 [Example 475] |  |  | Tryp AVG EC1.5 (μM) [2]: A (A (EC1.5<1 μM))
O=C(NCc1ccccc1)N1c2nc(-c3cccc(C(F)(F)F)c3)ccc2N2CC[C@H]1C2 [Example 597] |  |  | Tryp AVG EC1.5 (μM) [2]: B (B (EC1.5 1-25 μM))
O=C(NCCCn1ccnc1)N1c2nc(-c3cccc(C(F)(F)F)c3)ccc2N2CC[C@H]1C2 [Example 627] |  |  | Tryp AVG EC1.5 (μM) [3]: B (B (EC1.5 1-25 μM))
O=C(Nc1ccncn1)N1c2nc(N3CCCNCC3)ccc2N2CCC[C@H]1C2 [Example 420] |  |  | Tryp AVG EC1.5 (μM) [2]: C (C (EC1.5>25 μM))
Cc1cnccc1NC(=O)N1c2nc(C3CCCC(C(F)(F)F)C3)ccc2N2CC[C@H]1C2 (some centres unmarked) [Example 100] |  |  | Tryp AVG EC1.5 (μM) (Trp peptide substrate, concentration giving 150% activation of SIRT1): B (B (EC1.5 1-25 μM))
O=C(Nc1cnccn1)N1c2nc(N3CCO[C@H](C(F)(F)F)C3)ccc2N2CC[C@H]1C2 [drawing 1227, (9S)-N-(pyrazin-2-yl)-5-[(2S)-2-(trifluoromethyl)morpholin-4-yl]-1,6,8-triazatricyclo[7.2.1.0 {2,7}]dodeca-2(7),3,5-triene-8-carboxamide] | A (A (EC1.5<1 μM)) |  | TRP MAX RESP (percent maximum fold activation) [1]: A (A (Fold activation ≧150%))
O=C(Nc1ccccn1)N1c2nc(-c3cncc(Cl)c3)ccc2N2CCC[C@H]1C2 [Example 406] |  |  | Tryp AVG EC1.5 (μM) [4]: A (A (EC1.5<1 μM))
O=C(Nc1cccc(-c2cnco2)c1)N1c2nc(N3CCC[C@@H](C(F)(F)F)C3)ccc2N2CC[C@H]1C2 [Example 717] |  |  | Tryp AVG EC1.5 (μM) [3]: A (A (EC1.5<1 μM))
CS(=O)(=O)c1cncc(-c2ccc3c(n2)N(C(=O)Nc2cccnn2)[C@H]2CCCN3C2)c1 [Example 380] |  |  | Tryp AVG EC1.5 (μM) [4]: A (A (EC1.5<1 μM))
O=C(Nc1cccnc1)N1c2nc(-c3cccc(Cl)c3)ccc2N2C[C@@H](O)[C@H]1C2 [Example 681] |  |  | Tryp AVG EC1.5 (μM) [3]: B (B (EC1.5 1-25 μM))
O=C(Nc1cnccn1)N1c2nc(-c3cncc(F)c3)ccc2N2CCC1CC2 [Example 555] |  |  | Tryp AVG EC1.5 (μM) [2]: B (B (EC1.5 1-25 μM))
O=C(Nc1ccncn1)N1c2nc(-c3cccc(C(F)(F)F)c3)ccc2N2C[C@@H](O)[C@H]1C2 [Example 669] |  |  | Tryp AVG EC1.5 (μM) [3]: B (B (EC1.5 1-25 μM))
O=C(Nc1ccccn1)N1c2nc(-c3cncc(F)c3)ccc2N2CC[C@H]1C2 [Example 374] |  |  | Tryp AVG EC1.5 (μM) [4]: B (B (EC1.5 1-25 μM))
CCOc1cnc(NC(=O)N2c3nc(-c4ccnc(C)c4)ccc3N3CC[C@H]2C3)cn1 [(9S)-N-(5-ethoxypyrazin-2-yl)-5-(2-methylpyridin-4-yl)-1,6,8-triazatricyclo[7.2.1.0 {2,7}]dodeca-2(7),3,5-triene-8-carboxamide] | B (B (EC1.5 1-25 μM)) | > 150% | 
O=C(Nc1ccccn1)N1c2nc(-c3cc(F)cc(C(F)(F)F)c3)ccc2N2CC[C@H]1C2 [Example 333] |  |  | Tryp AVG EC1.5 (μM) [4]: A (A (EC1.5<1 μM))
COc1cc(NC(=O)N2c3nc(-c4cccc(N(C)C)c4)ccc3N3CCC[C@H]2C3)ncn1 [Example 385] |  |  | Tryp AVG EC1.5 (μM) [4]: A (A (EC1.5<1 μM))
C#CCOc1cc(-c2ccc3c(n2)N(C(=O)Nc2cccc(C4(C(F)(F)F)N=N4)c2)[C@H]2CCN3C2)cc(C(F)(F)F)c1 [Example 800] |  |  | Tryp AVG EC1.5 (μM) [3]: C (C (EC1.5>25 μM))
O=C(Nc1ccccn1)N1c2nc(-c3cccc(C(F)(F)F)c3)ccc2N2CCC[C@H]1C2 [Example 820] |  |  | Tryp AVG EC1.5 (μM) [3]: A (A (EC1.5<1 μM))
O=C(Nc1ccccn1)N1c2nc(-c3cccc(C(F)(F)F)c3)ccc2N2C[C@@H](O)[C@H]1C2 [Example 601] |  |  | Tryp AVG EC1.5 (μM) [2]: A (A (EC1.5<1 μM))
Cc1nc(NC(=O)N2c3nc(-c4cncc(F)c4)ccc3N3CCC2CC3)sc1C [Example 577] |  |  | Tryp AVG EC1.5 (μM) [2]: B (B (EC1.5 1-25 μM))

The next lines start with results.

TRP Activity (EC1.5) (Trp peptide assay) | Emax [1] | SMILES | also measured
B (B (EC1.5 1-25 μM)) | > 150% | Cc1cc(-c2ccc3c(n2)N(C(=O)NC2CCCC2)[C@H]2CCN3C2)ccn1 [(9S)-N-cyclopentyl-5-(2-methylpyridin-4-yl)-1,6,8-triazatricyclo[7.2.1.0 {2,7}]dodeca-2,4,6-triene-8-carboxamide] | 
A (A (EC1.5<1 μM)) | > 150% | O=C(Nc1cnccn1)N1c2nc(-c3ccnc(C(F)(F)F)c3)ccc2N2CCC[C@H]1C2 [(9S)-N-(pyrazin-2-yl)-5-[2-(trifluoromethyl)pyridin-4-yl]-1,6,8-triazatricyclo[7.3.1.0 {2,7}]trideca-2(7),3,5-triene-8-carboxamide] | 
B (B (EC1.5 1-25 μM)) | > 150% | C[C@@H]1CN(c2ccc3c(n2)N(C(=O)Nc2cnccn2)[C@H]2CCN3C2)C[C@H](C)O1 [(9S)-5-[(2R,6S)-2,6-dimethylmorpholin-4-yl]-N-(pyrazin-2-yl)-1,6,8-triazatricyclo[7.2.1.0 {2,7}]dodeca-2(7),3,5-triene-8-carboxamide] | 
B (B (EC1.5 1-25 μM)) | > 150% | Cc1cc(-c2ccc3c(n2)N(C(=O)Nc2cncc(C)n2)[C@H]2CCCN3C2)ccn1 [(9S)-N-(6-methylpyrazin-2-yl)-5-(2-methylpyridin-4-yl)-1,6,8-triazatricyclo[7.3.1.0 {2,7}]trideca-2(7),3,5-triene-8-carboxamide] | 
B (B (EC1.5 1-25 μM)) | > 150% | Cc1cc(-c2ccc3c(n2)N(C(=O)Nc2cnccn2)[C@H]2CCN3C2)c(C)cn1 [(9S)-5-(2,5-dimethylpyridin-4-yl)-N-(pyrazin-2-yl)-1,6,8-triazatricyclo[7.2.1.0 {2,7}]dodeca-2,4,6-triene-8-carboxamide] | 
A (A (EC1.5<1 μM)) | > 150% | Cc1cc(-c2ccc3c(n2)N(C(=O)Nc2cncc(C4CC4)n2)[C@H]2CCN3C2)ccn1 [(9S)-N-(6-cyclopropylpyrazin-2-yl)-5-(2-methylpyridin-4-yl)-1,6,8-triazatricyclo[7.2.1.0 {2,7}]dodeca-2(7),3,5-triene-8-carboxamide] | 
A (A (EC1.5<1 μM)) | > 150% | O=C(Nc1cnccn1)N1c2nc(-c3cnn(C4CC4)c3)ccc2N2CC[C@H]1C2 [(9S)-5-(1-cyclopropyl-1H-pyrazol-4-yl)-N-(pyrazin-2-yl)-1,6,8-triazatricyclo[7.2.1.0 {2,7}]dodeca-2(7),3,5-triene-8-carboxamide] | 
B (B (EC1.5 1-25 μM)) | > 150% | Cc1ncc(-c2ccc3c(n2)N(C(=O)Nc2cccnc2)[C@H]2CCN3C2)cc1F [(9S)-5-(5-fluoro-6-methylpyridin-3-yl)-N-(pyridin-3-yl)-1,6,8-triazatricyclo[7.2.1.0 {2,7}]dodeca-2(7),3,5-triene-8-carboxamide] | 
A (A (EC1.5<1 μM)) | > 150% | O=C(Nc1cnccn1)N1c2nc(-c3ccnc(C(F)F)c3)ccc2N2CC[C@H]1C2 [(9S)-5-[2-(difluoromethyl)pyridin-4-yl]-N-(pyrazin-2-yl)-1,6,8-triazatricyclo[7.2.1.0 {2,7}]dodeca-2(7),3,5-triene-8-carboxamide] | 
B (B (EC1.5 1-25 μM)) | > 150% | CCn1cc(-c2ccc3c(n2)N(C(=O)Nc2cnccn2)[C@H]2CCN3C2)cn1 [(9S)-5-(1-ethyl-1H-pyrazol-4-yl)-N-(pyrazin-2-yl)-1,6,8-triazatricyclo[7.2.1.0 {2,7}]dodeca-2(7),3,5-triene-8-carboxamide] | 
